Assay results reported in patent US20150018360A1, “COMPOSITIONS AND METHODS FOR TREATING METABOLIC DISORDERS” (BIOMED VALLEY DISCOVERIES, INC., priority 2011, published 2015).

What was measured:
[1] = Body weight of DIO mice during 15-day treatment; format: in vivo, mouse; details: either time-point or dose (data not shown)
[2] = molecular target: T1, human recombinant dipeptidyl dipeptidase-4 (DPP4) (Homo sapiens, UniProt P27487); experiment: Human recombinant DPP4 assay with fluorogenic substrate GP-AMC; format: biochemical; details: 10 μM; % of control; ns
T1 construct: Cerep (contract laboratory that ran the assay)
T1 sequence (P27487 whole entry): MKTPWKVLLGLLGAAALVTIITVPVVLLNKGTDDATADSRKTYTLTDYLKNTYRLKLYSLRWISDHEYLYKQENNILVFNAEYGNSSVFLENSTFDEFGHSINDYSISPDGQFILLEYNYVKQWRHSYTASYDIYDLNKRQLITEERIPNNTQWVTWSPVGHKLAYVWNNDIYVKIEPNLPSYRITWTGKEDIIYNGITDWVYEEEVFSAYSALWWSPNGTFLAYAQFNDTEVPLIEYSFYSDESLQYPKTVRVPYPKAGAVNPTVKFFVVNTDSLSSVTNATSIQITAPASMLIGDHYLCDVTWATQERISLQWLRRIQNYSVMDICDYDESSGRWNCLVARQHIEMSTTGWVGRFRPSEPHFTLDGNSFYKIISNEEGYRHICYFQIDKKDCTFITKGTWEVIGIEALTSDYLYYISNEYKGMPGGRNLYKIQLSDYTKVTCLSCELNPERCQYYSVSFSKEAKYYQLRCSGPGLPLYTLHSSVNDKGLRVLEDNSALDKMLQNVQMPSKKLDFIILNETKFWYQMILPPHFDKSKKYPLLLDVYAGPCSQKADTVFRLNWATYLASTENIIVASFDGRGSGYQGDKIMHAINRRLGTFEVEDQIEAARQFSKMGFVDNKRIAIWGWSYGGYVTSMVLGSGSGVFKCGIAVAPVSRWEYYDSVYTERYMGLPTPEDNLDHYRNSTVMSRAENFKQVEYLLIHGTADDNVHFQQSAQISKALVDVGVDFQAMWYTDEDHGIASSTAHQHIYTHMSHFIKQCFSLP
Method: DPP4 inhibitor K579 was used as a positive control. Assay was performed by Cerep (Bois l'Eveque, France).
Inhibition is represented as % of control.

[3] = tested on: diet-induced obese (DIO) mice; experiment: Oral glucose tolerance test (OGTT) in diet-induced obese mice; format: in vivo, mouse; details: for glucose lowering effects in OGTT (glucose AUC): DIO C57BL/6 mice, 125 mg/kg i.p. once daily for 5 days
Text: High-fat diet feeding in rodents changes multiple biochemical and physiological parameters that reflect the biochemical and physiological changes observed in diet induced obesity (D10). Such diets induce dramatic changes in weight gain that are concomitant with elevations in serum cholesterol, lipids, and triglycerides. Moreover, these high fat diets can lead to atherosclerotic lesions as well as insulin resistance and dysregulation of glucose homeostatic mechanisms that are consistent with obesity induced changes in humans.
Type II diabetes is characterized by high blood glucose levels in the presence of normal amounts of insulin. The animal model or type II diabetes used in these studies involves administering high levels of glucose and then measuring blood glucose levels over time. The test is designed to determine the ability of the experimental animal to maintain glucose homeostasis over time. Drugs that lower blood glucose levels in type II diabetic patients also lower blood glucose levels in this animal model of type II diabetes.
Male C57BL/6J mice were fed a high fat diet for 5 weeks (age 6-11 weeks) prior to study. […] DIO mice were food deprived overnight prior to glucose load (1.5 g/kg, t0). Mice were treated with drug or vehicle 30 minutes before glucose load (t-30). Blood glucose was measured with a glucometer (Accu-Chek® Roche, Indianapolis, IN), from the tip of the tail in free moving mice, at 15 minutes before (t-15), 15 minutes after (t15), and 45 minutes after (t45) glucose load.
In these studies, C57BL/6 mice were fed a high fat diet from 6 to 11 weeks of age, resulting in diet-induced obesity. […] After 5 days of dosing, animals were fasted overnight prior to an oral glucose tolerance test (OGTT). The morning after fasting, a baseline glucose level was measured, followed by compound or vehicle dosing. A second blood glucose level was measured 15 minutes later. At 30 minutes past the first glucose measurement, animals were challenged with a 1.5 g/kg glucose solution per os (p.o.), and blood glucose levels determined 15 and 45 minutes later. Areas under the curve were determined for the blood glucose levels, baselined at the first measurement.

[4] = molecular target: Kir6.2/SUR1 potassium channels (Homo sapiens, UniProt Q09428+Q14654); experiment: Kir6.2/SUR1 potassium channel patch clamp (PatchXpress) in HEK293 cells
Chain of Kir6.2/SUR1 potassium channels (Q14654 whole entry): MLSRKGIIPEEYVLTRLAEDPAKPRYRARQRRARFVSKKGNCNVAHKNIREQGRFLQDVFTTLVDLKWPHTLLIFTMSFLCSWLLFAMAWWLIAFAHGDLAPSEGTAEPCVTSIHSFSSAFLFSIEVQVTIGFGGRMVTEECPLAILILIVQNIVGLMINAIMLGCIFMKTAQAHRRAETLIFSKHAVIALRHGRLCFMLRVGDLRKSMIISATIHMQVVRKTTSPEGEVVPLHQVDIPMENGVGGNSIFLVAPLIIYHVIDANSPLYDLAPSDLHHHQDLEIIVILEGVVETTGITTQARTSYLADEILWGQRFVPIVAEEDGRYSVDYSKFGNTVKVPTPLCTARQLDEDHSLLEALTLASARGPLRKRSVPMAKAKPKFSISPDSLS
Chain of Kir6.2/SUR1 potassium channels (Q09428 whole entry): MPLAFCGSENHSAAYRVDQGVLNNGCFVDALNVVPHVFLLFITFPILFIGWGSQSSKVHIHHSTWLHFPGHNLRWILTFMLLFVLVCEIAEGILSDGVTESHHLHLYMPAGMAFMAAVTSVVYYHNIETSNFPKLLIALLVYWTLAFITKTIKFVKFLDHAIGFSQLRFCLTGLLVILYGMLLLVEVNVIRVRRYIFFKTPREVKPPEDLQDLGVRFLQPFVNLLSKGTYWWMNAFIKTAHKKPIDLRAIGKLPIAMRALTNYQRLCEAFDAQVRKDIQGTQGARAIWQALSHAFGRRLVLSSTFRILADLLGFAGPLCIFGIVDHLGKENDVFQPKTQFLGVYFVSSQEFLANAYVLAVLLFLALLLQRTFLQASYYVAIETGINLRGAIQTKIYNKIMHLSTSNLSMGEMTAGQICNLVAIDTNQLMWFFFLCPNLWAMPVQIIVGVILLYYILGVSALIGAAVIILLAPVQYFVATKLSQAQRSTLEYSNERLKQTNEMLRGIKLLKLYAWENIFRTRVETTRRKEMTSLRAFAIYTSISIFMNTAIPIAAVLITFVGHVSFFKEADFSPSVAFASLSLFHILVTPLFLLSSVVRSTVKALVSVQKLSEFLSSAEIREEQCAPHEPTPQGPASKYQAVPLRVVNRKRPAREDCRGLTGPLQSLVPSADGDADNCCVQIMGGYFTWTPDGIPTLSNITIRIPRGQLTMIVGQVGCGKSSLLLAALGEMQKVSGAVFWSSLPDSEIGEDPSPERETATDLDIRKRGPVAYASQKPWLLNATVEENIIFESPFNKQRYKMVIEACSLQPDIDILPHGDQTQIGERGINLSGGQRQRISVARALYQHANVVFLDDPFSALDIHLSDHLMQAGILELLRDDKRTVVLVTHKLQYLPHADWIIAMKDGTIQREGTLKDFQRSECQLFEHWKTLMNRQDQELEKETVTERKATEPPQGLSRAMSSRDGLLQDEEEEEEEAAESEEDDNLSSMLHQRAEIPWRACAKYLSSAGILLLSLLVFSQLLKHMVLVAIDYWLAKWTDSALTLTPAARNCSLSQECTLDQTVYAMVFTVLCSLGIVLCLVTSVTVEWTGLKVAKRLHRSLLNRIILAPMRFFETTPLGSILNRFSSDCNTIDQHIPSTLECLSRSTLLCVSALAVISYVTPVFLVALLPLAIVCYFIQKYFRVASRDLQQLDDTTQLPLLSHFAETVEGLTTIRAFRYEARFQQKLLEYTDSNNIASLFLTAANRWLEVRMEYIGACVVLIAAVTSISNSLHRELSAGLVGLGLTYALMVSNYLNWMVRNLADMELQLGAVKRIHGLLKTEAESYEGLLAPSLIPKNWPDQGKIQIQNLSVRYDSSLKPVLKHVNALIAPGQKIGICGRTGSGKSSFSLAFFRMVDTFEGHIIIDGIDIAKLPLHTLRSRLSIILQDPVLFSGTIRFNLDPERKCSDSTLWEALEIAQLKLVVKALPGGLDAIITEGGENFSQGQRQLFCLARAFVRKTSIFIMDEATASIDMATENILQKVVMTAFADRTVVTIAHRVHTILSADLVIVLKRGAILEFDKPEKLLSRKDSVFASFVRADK
Text: Inhibition is represented as % of control. “ns” represents not statistically significant or P>0.05.

active GLP-1 = experiment: Active GLP-1 in hepatoportal vein blood of normal mice; format: in vivo, mouse; details: 10 mg/kg i.p., 15 min after glucose bolus
Method: (§1) Normal male 12 week old C57BL/6J mice were food deprived 6 hours before the glucose load (1.5 g/kg, t0). Mice were treated with drug or vehicle 30 minutes before glucose load (t-30). Blood glucose was measured with a glucometer (Accu-Chek® Roche, Nutley, N.J.), from the tip of the tail in free moving mice, at t-30, t0, t15, t30, t60, t90, t120 minutes. Blood collection (about 20 μl) was performed from the tip of the tail at t-30, t15 and t30 for plasma insulin determination (ELISA kit, Alpco Diagnostics, Salem, N.H.). After a 1-week washout period, mice were randomly allocated into 2 groups. Mice were food deprived 6 hours before the glucose load (1.5 g/kg, t0) was performed. Mice were treated with drug or vehicle 30 minutes before glucose load. Blood glucose was measured at t0 and t15 minutes. At t15, mice were anesthetized with isoflurane and blood was collected from the hepatoportal vein (on EDTA/diprotin/ aprotinin anticoagulant cocktail). Plasma was rapidly prepared and stored at -80° C. The active form of GLP-1 was then measured (ELISA kit, Millipore, Billerica, Mass.).

[5] = Pharmacokinetic analysis in mice (plasma, LC/MS/MS); format: in vivo, mouse; details: normal male mice, 10 mg/kg i.p.
Method: Male C57B1/6 mice (n =4, two cohorts) were treated with drug and at the designated times after dosing (5, 15, 30, 60 and 120), whole blood was collected via the retro-orbital sinus in heparanized tubes and plasma prepared by centrifugation at 1650 relative centrifugal force (RCF) at 4° C. Plasma samples were extracted by a standard protocol using an acetonitrile/protein precipitation method, and levels of test agent were analyzed by LC/MS/MS.

[6] = tested on: circulating prolactin levels; experiment: Prolactin assay (plasma prolactin ELISA after OGTT); format: in vivo, mouse; details: DIO mice, once daily i.p. for 5 days, plasma 45 min after glucose load
Method: Mice were treated with drug or vehicle 30 minutes before an OGTT (t-30). At 45 minutes after glucose load (t45), mice were bled via retro-orbital sinus into EDTA microfuge tubes. Plasma was rapidly prepared and stored at −80° C. until measurement of prolactin levels (ELISA kit, Genway Biotech, San Diego, Calif.).

dopamine D2/D3 receptors = details: in-vitro assays; cited from earlier work
serum prolactin levels = details: rat, cited from earlier work; for increase in serum prolactin levels: marker of dopamine D2 receptor blockade
normal mice = experiment: OGTT with plasma insulin determination in normal mice; format: in vivo, mouse; details: single dose 10 mg/kg i.p.
Method: as §1

CCN1CCCC1CNC(=O)c1cc(S(=O)(=O)CC)c(N)cc1OC (racemic) [(R/S)-amisulpride, amisulpride]
changes in body weight [1]: No changes | % inhibition of DPP4 [2]: 1.9 (2.0) % | glucose lowering effects in OGTT (glucose AUC) [3]: glucose lowering effects | fasting blood glucose levels ([3]; DIO mice, 20 mg/kg, following 5 days of treatment, P<0.05 vs vehicle): 158.7 ± 7.5 mg/dL | glucose excursion during the OGTT ([3]; DIO mice, once daily i.p. for 15 days, both amisulpride doses, OGTT on days 5 and 15): significant reduction | % inhibition of Kir6.2/SUR1 ([4]; 10 μM, HEK293 cells, channel activated with 300 μM diazoxide, % of control, ns): 3.4 (2.4) % | effect on the sulphonylurea receptor in-vitro ([4]; in-vitro (Table 5)): unaffected

CCN1CCCC1CNC(=O)c1cc(S(N)(=O)=O)ccc1OC (racemic) [(R/S)-sulpride]
glucose lowering effects in OGTT (glucose AUC) [3]: glucose lowering effects

CCN1CCC[C@@H]1CNC(=O)c1cc(S(=O)(=O)CC)c(N)cc1OC [(R)-amisulpride, (R)(+)-amisulpride]
active form GLP-1 levels from the hepatic portal vein (active GLP-1): unchanged | maximal plasma drug levels [5]: did not exceed concentrations used in the in vitro assays | ED50 for effect on circulating prolactin levels [6]: 1.5 mg/kg | times less potent than (S)-amisulpride in displacing dopamine D2/D3 receptor ligands (dopamine D2/D3 receptors): 20-40 times | increase in serum prolactin levels (serum prolactin levels): 1 fold | increase in ED50 required to reach maximal effect on prolactin, compared to (S)-amisulpride (serum prolactin levels): 40 fold | increase in circulating insulin levels compared to vehicle (normal mice; OGTT): approximately 2.5 fold | glucose excursions (normal mice; vs vehicle): significantly decreased

CCN1CCC[C@H]1CNC(=O)c1cc(S(=O)(=O)CC)c(N)cc1OC [(S)-amisulpride, (S)(−)-amisulpride]
ED50 for effect on circulating prolactin levels [6]: 0.01 mg/kg | increase in serum prolactin levels (serum prolactin levels): 4 fold
